# Assay results published in patent US20250243196A1, “CITRON KINASE INHIBITORS” (The Cleveland Clinic Foundation, priority 2021, published 2025).
# pIC50: −log10 of the molar value.
# Biological target: Citron kinase (Homo sapiens (Human), UniProt O14578)
# Assay: Radiometric citron kinase assay (Eurofins Cat #16-040KP)
# Assay type: biochemical
# Details: mean of at least two independent assays; read-out: Radiometric CitK IC50
# Text: In some embodiments, the step of contacting the sample with the compound comprises administering the compound to a subject (e.g., a subject) suffering from cancer. Methods of determining kinase inhibition are well known in the art. For example, kinase activity of an enzyme and the inhibitory capacity of a test compound can be determined by measuring enzyme specific phosphorylation of a substrate. Commercial assays and kits can be employed. For example, kinase inhibition can be determined using a radiometric binding assay, such as using KinaseProfiler™ technology (Eurofins Discovery). This assay method directly detects product formation without the use of modified substrates or coupling enzymes. Test compounds are incubated with kinase, substrate, required cofactors and radioisotope labeled ATP. Following incubation, unreacted radioactive ATP is removed by washing and incorporation of the radiolabeled phosphate into the kinase substrate is assayed to detect phosphoryltransferase activity, which is directly proportional to the amount of phosphorylated substrate. Inhibition of the kinase by a kinase inhibitor prevents phosphorylation of the substrate and thereby limits the incorporation of radiolabeled phosphate. Such an assay is compatible with a microwell assay format, allowing simultaneous determination of IC50 of multiple compounds.
# Compounds were screened for biochemical kinase activity (Eurofins Discovery, France) using one of two assays. […] All values in Table 1 are the mean of at least two independent assays.
# Chain of Citron kinase (O14578 whole entry): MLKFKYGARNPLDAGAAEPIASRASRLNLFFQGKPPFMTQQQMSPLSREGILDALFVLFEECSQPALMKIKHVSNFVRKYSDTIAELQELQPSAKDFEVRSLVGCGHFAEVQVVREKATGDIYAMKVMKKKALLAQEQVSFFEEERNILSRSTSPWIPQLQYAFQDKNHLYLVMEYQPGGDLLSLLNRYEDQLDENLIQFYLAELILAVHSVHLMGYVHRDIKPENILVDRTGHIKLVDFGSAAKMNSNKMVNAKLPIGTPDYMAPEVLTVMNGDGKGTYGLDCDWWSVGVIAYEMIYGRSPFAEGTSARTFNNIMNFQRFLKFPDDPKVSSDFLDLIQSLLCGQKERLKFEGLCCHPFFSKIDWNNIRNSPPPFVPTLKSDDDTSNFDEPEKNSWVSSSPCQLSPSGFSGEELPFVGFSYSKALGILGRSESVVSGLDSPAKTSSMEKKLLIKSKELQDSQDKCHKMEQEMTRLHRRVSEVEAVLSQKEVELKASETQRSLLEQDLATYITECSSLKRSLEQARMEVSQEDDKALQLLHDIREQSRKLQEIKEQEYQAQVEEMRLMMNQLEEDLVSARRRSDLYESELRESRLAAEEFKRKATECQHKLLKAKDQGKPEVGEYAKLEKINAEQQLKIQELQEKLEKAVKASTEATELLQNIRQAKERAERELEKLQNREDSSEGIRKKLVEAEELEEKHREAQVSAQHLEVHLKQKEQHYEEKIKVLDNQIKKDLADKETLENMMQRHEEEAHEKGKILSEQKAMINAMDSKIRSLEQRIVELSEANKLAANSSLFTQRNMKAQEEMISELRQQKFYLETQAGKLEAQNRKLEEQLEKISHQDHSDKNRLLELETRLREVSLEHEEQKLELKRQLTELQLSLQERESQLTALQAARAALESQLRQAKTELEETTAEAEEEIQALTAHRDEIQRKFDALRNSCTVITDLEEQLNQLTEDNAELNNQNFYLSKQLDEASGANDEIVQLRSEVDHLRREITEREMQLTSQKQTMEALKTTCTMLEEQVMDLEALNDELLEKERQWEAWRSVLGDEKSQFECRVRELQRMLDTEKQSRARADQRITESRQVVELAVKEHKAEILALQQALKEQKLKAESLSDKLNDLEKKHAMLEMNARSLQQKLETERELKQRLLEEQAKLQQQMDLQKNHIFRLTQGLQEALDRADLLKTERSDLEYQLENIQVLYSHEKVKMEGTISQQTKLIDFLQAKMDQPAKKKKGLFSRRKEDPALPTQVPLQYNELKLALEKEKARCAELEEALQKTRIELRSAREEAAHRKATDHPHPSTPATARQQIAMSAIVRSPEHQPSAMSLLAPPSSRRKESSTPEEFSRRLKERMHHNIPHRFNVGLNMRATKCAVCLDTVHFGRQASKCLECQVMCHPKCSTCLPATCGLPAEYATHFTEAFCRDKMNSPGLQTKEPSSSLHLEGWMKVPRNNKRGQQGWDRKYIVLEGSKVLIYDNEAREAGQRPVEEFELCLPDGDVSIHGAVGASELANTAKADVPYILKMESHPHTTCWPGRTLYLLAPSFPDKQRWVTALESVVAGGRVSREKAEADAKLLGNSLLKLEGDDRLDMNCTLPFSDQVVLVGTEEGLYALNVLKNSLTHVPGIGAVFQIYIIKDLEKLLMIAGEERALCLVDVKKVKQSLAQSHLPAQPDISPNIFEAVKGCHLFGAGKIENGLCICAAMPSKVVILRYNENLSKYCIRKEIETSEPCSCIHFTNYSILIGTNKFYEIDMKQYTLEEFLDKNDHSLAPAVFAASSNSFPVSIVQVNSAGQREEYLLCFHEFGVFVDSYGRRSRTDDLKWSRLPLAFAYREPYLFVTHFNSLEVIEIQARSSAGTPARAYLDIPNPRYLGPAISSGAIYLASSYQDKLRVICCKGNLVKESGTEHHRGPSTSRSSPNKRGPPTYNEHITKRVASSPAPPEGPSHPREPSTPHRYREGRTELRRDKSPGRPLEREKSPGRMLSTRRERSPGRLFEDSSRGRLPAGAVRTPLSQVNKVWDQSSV
row,Structure (SMILES),pIC50
1,"Cc1cc2c(-c3nc(NC(=O)[C@H](N)C(C)(C)C)sc3C)ccnc2[nH]1 [Compound F-117, (2R)-2-Amino-3,3-dimethyl-N-[5-methyl-4-(2-methyl-1H-pyrrolo[2,3-b]pyridin-4-yl)thiazol-2-yl]butanamide]",5.52
2,"COc1cc(-c2ccnc3[nH]ccc23)ccc1NC(=O)[C@H](N)Cc1ccccc1 [Compound F-131, (2R)-2-Amino-N-[2-methoxy-4-(1H-pyrrolo[2,3-b]pyridin-4-yl)phenyl]-3-phenyl-propanamide]",6.52
3,"Cc1cc(-c2ccnc3[nH]ccc23)ccc1NC(=O)[C@H](N)Cc1ccccc1 [Compound F-132, (2R)-2-Amino-N-[2-methyl-4-(1H-pyrrolo[2,3-b]pyridin-4-yl)phenyl]-3-phenyl-propanamide]",6.63
4,"Cc1c(-c2ccnc3[nH]ccc23)ccc(NC(=O)[C@H](N)C(C)(C)C)c1F [Compound F-137, (2R)-2-Amino-N-[2-fluoro-3-methyl-4-(1H-pyrrolo[2,3-b]pyridin-4-yl)phenyl]-3,3-dimethyl-butanamide]",7.64
5,"Cc1cc(NC(=O)[C@H](N)C(C)(C)C)cc(C)c1-c1ccnc2[nH]ccc12 [Compound F-138, (2R)-2-Amino-N-[3,5-dimethyl-4-(1H-pyrrolo[2,3-b]pyridin-4-yl)phenyl]-3,3-dimethyl-butanamide]",5.52
6,"Cc1cc(NC(=O)[C@H](N)C(C)(C)O)ccc1-c1ccnc2[nH]c(C(F)F)cc12 [Compound F-139, (2R)-2-Amino-N-[4-[2-(difluoromethyl)-1H-pyrrolo[2,3-b]pyridin-4-yl]-3-methyl-phenyl]-3-hydroxy-3-methyl-butanamide]",6.82
7,"CC(C)(C)C[C@@H](N)C(=O)Nc1ccc(-c2ccnc3[nH]c(C(F)F)cc23)cc1 [Compound F-143, (2R)-2-Amino-N-[4-[2-(difluoromethyl)-1H-pyrrolo[2,3-b]pyridin-4-yl]phenyl]-4,4-dimethyl-pentanamide]",8.40
8,"Cc1cc2c(-c3ccc(NC(=O)[C@H](N)CC(C)(C)C)cn3)ccnc2[nH]1 [Compound F-145, (2R)-2-Amino-4,4-dimethyl-N-(6-(2-methyl-1H-pyrrolo[2,3-b]pyridin-4-yl)pyridin-3-yl)pentanamide]",7.59
9,"CC(C)(C)C[C@@H](N)C(=O)Nc1ccc(-c2ccnc3[nH]c(C(F)(F)F)cc23)cn1 [Compound F-146, (2R)-2-Amino-4,4-dimethyl-N-[5-[2-(trifluoromethyl)-1H-pyrrolo[2,3-b]pyridin-4-yl]-2-pyridyl]pentanamide]",6.51
10,"COc1nc(-c2ccnc3[nH]c(C(F)(F)F)cc23)ccc1NC(=O)[C@H](N)CC(C)(C)C [Compound F-149, (2R)-2-Amino-N-[2-methoxy-6-[2-(trifluoromethyl)-1H-pyrrolo[2,3-b]pyridin-4-yl]-3-pyridyl]-4,4-dimethyl-pentanamide]",7.42
11,"COc1nc(-c2ccnc3[nH]c(C(F)F)cc23)ccc1NC(=O)[C@H](N)CC(C)(C)C [Compound F-150, (2R)-2-Amino-N-[6-[2-(difluoromethyl)-1H-pyrrolo[2,3-b]pyridin-4-yl]-2-methoxy-3-pyridyl]-4,4-dimethyl-pentanamide]",8.05
12,"Cc1cc2c(-c3ccc(NC(=O)[C@H](N)CC(C)(C)C)nc3C)ccnc2[nH]1 [Compound F-151, (2R)-2-Amino-4,4-dimethyl-N-[6-methyl-5-(2-methyl-1H-pyrrolo[2,3-b]pyridin-4-yl)-2-pyridyl]pentanamide]",7.04
13,"Cc1nc(NC(=O)[C@H](N)CC(C)(C)C)ccc1-c1ccnc2[nH]c(C(F)F)cc12 [Compound F-152, (2R)-2-Amino-N-[5-[2-(difluoromethyl)-1H-pyrrolo[2,3-b]pyridin-4-yl]-6-methyl-2-pyridyl]-4,4-dimethyl-pentanamide]",6.92

# Continued by rising pIC50, values first:
row,pIC50,Structure (SMILES)
1,5.52,"N[C@@H](Cc1ccccc1)C(=O)Nc1ccc(-c2ccnc3[nH]ccc23)c(C(F)(F)F)c1 [Compound F-129, (2S)-2-Amino-3-phenyl-N-[4-(1H-pyrrolo[2,3-b]pyridin-4-yl)-3-(trifluoromethyl)phenyl]propanamide]"
2,5.85,"N[C@H](Cc1ccccc1)C(=O)Nc1ccc(-c2ccnc3[nH]ccc23)c(C(F)(F)F)c1 [Compound F-130, (2R)-2-Amino-3-phenyl-N-[4-(1H-pyrrolo[2,3-b]pyridin-4-yl)-3-(trifluoromethyl)phenyl]propanamide]"
3,5.90,"CCc1c[nH]c2nccc(-c3ccc(NC(=O)[C@H](N)Cc4ccccc4)cc3)c12 [Compound F-136, (2R)-2-Amino-N-[4-(3-ethyl-1H-pyrrolo[2,3-b]pyridin-4-yl)phenyl]-3-phenyl-propanamide]"
4,6.22,"COc1cc(NC(=O)[C@H](N)Cc2ccccc2)ccc1-c1ccnc2[nH]ccc12 [Compound F-128, (2R)-2-Amino-N-[3-methoxy-4-(1H-pyrrolo[2,3-b]pyridin-4-yl)phenyl]-3-phenyl-propanamide]"
5,6.25,"N[C@H](Cc1ccccc1)C(=O)Nc1ccc(-c2ccnc3[nH]ccc23)cc1Cl [Compound F-133, (2R)-2-Amino-N-[2-chloro-4-(1H-pyrrolo[2,3-b]pyridin-4-yl)phenyl]-3-phenyl-propanamide]"
6,6.43,"Cc1cc2c(-c3csc(NC(=O)[C@H](N)CC(C)C)n3)ccnc2[nH]1 [Compound F-116, (2R)-2-Amino-4-methyl-N-[4-(2-methyl-1H-pyrrolo[2,3-b]pyridin-4-yl)thiazol-2-yl]pentanamide]"
7,6.84,"Cc1cc(NC(=O)[C@H](N)Cc2ccccc2)ccc1-c1ccnc2[nH]ccc12 [Compound F-127, (2R)-2-Amino-N-[3-methyl-4-(1H-pyrrolo[2,3-b]pyridin-4-yl)phenyl]-3-phenyl-propanamide]"
8,7.19,"N[C@H](Cc1ccccc1)C(=O)Nc1cccc(-c2ccnc3[nH]ccc23)c1 [Compound F-134, (2R)-2-Amino-3-phenyl-N-[3-(1H-pyrrolo[2,3-b]pyridin-4-yl)phenyl]propanamide]"
9,7.62,"Cc1c(-c2ccnc3[nH]c(C(F)(F)F)cc23)ccc(NC(=O)[C@H](N)CC(C)(C)C)c1F [Compound F-147, (2R)-2-Amino-N-[2-fluoro-3-methyl-4-[2-(trifluoromethyl)-1H-pyrrolo[2,3-b]pyridin-4-yl]phenyl]-4,4-dimethyl-pentanamide]"
10,7.66,"CC(C)(C)C[C@@H](N)C(=O)Nc1ccc(-c2ccnc3[nH]c(C(F)(F)F)cc23)cc1 [Compound F-144, (2R)-2-amino-4,4-dimethyl-N-[4-[2-(trifluoromethyl)-1H-pyrrolo[2,3-b]pyridin-4-yl]phenyl]pentanamide]"
11,7.74,"Cc1cc(NC(=O)[C@H](N)CC(C)(C)C)ccc1-c1ccnc2[nH]c(C3CC3)cc12 [Compound F-142, (2R)-2-Amino-N-[4-(2-cyclopropyl-1H-pyrrolo[2,3-b]pyridin-4-yl)-3-methyl-phenyl]-4,4-dimethyl-pentanamide]"
12,7.74,"COc1nc(-c2ccnc3[nH]c(C)cc23)ccc1NC(=O)[C@H](N)CC(C)(C)C [Compound F-148, (2R)-2-Amino-N-[2-methoxy-6-(2-methyl-1H-pyrrolo[2,3-b]pyridin-4-yl)-3-pyridyl]-4,4-dimethyl-pentanamide]"
13,8.00,"CC(C)(C)C[C@@H](N)C(=O)Nc1ccc(-c2ccnc3[nH]c(C4CC4)cc23)cc1 [Compound F-141, (2R)-2-Amino-N-[4-(2-cyclopropyl-1H-pyrrolo[2,3-b]pyridin-4-yl)phenyl]-4,4-dimethyl-pentanamide]"
